The first test addresses human Cav2.2 (Homo sapiens, UniProt Q00975). Description: Assessment of calcium channel activity using FLIPR (Ca2+ influx in IMR32 cells). It counts as cell-based. As to conditions: 3 minute pre-incubation with compound (*), 2 μM nifedipine, depolarized with 80 mM KCl. As for the experimental part: (i) In Vitro Methods—Assessment of Calcium Channel Activity Using FLIPR:
The IMR32 cells were maintained in MEM media containing 10% (v/v) FBS, 1% (v/v) antibiotic/antimitotic, 1% (v/v) sodium pyruvate and 1% (v/v) MEM NEAA. Following dissociation in 0.05% (v/v) trypsin/EDTA, cells were seeded into black 1×96-well plates (Corning Cellbind) at a density of 1-1.2×10^5 cells/well and incubated in the maintenance media above for 48 hours at 37° C. […] To determine the IC50 values, the percent inhibition of the compound at each concentration was determined relative to the activity in the absence of inhibitor, and data was fitted using non-linear regression sigmoidal dose response curve analysis with GraphPad Prism®.
Sequence of human Cav2.2 (Q00975 whole entry): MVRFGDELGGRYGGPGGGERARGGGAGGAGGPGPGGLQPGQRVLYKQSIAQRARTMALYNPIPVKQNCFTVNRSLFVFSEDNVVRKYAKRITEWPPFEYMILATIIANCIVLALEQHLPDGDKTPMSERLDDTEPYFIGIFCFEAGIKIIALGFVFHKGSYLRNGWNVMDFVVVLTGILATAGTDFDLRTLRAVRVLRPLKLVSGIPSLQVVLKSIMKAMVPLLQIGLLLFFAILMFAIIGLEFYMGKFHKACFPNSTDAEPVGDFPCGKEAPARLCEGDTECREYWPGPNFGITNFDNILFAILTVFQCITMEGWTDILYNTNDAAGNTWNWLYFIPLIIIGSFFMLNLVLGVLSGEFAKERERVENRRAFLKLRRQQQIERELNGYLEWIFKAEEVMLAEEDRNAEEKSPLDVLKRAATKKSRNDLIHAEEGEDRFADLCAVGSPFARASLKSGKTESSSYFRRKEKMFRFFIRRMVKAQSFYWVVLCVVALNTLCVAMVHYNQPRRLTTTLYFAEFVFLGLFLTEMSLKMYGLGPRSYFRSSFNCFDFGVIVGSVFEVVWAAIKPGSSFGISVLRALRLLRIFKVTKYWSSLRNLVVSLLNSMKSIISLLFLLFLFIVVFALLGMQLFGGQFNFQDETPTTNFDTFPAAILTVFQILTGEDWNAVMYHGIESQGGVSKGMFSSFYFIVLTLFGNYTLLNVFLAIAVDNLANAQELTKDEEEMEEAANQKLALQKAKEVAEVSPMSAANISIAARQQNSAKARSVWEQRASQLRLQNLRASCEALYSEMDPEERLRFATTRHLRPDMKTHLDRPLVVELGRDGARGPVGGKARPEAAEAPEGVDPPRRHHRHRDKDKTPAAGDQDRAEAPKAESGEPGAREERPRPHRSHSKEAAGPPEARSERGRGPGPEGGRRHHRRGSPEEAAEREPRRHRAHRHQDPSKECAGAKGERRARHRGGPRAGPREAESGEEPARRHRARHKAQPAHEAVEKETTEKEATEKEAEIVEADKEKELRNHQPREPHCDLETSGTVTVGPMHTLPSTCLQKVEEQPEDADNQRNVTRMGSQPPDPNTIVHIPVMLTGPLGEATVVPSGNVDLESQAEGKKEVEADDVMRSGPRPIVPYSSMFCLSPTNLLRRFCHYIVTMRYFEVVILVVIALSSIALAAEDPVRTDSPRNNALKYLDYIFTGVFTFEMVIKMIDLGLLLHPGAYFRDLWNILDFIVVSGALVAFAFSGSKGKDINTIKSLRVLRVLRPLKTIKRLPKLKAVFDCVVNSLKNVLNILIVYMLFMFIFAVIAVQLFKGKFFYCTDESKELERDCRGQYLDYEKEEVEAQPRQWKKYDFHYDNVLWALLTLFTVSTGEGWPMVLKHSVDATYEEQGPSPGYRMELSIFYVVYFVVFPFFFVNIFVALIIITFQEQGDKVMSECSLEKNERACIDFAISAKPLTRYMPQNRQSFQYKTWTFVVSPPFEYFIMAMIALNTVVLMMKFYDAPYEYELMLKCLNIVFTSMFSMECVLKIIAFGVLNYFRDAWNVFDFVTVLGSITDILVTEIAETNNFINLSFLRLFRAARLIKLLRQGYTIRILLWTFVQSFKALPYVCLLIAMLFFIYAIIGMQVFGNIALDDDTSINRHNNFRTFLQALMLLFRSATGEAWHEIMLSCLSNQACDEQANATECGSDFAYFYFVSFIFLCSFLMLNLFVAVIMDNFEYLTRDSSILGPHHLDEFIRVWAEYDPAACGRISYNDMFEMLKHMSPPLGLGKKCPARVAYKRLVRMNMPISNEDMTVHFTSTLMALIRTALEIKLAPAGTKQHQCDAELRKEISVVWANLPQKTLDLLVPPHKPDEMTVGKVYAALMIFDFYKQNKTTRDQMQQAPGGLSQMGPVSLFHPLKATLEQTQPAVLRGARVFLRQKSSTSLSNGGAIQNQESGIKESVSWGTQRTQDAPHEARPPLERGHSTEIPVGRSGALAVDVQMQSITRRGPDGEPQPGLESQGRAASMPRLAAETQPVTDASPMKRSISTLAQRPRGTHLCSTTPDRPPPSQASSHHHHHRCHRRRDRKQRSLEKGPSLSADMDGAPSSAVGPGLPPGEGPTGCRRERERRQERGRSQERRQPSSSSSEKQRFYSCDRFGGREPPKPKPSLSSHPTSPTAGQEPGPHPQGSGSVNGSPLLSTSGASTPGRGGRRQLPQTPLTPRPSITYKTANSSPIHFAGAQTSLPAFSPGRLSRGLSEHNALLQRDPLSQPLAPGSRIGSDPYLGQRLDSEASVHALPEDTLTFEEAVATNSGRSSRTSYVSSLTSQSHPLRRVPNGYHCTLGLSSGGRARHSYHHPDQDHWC
Sequence of human Cav2.2 (P54289 25-946 partner limits assumed): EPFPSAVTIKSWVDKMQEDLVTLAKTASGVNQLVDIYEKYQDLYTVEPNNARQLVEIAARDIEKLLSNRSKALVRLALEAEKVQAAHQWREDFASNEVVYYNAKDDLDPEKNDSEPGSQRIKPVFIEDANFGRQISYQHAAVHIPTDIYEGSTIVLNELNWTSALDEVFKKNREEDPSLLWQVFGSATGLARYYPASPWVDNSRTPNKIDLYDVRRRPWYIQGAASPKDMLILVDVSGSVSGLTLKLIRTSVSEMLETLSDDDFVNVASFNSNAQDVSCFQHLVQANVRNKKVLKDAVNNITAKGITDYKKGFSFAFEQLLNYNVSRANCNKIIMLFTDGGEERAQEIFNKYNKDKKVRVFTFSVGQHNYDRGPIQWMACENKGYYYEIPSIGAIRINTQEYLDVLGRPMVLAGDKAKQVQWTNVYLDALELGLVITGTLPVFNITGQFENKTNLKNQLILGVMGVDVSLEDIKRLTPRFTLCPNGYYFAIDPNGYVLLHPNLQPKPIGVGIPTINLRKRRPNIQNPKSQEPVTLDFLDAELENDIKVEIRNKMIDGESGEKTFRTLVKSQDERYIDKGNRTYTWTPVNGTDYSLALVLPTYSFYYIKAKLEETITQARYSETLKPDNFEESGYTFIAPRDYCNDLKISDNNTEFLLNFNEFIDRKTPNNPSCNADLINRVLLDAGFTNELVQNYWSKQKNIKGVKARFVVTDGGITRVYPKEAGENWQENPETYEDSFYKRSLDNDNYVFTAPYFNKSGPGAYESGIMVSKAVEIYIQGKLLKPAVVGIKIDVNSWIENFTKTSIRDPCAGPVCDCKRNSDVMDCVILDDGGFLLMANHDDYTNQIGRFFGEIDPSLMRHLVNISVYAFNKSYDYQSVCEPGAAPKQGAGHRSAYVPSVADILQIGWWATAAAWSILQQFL
Sequence of human Cav2.2 (P54289 947-1103 partner limits assumed): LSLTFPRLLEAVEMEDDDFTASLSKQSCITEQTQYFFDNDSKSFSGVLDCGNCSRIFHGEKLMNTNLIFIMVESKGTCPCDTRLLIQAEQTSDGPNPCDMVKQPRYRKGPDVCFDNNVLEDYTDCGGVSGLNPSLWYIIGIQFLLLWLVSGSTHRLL
Sequence of human Cav2.2 (P54284 whole entry partner): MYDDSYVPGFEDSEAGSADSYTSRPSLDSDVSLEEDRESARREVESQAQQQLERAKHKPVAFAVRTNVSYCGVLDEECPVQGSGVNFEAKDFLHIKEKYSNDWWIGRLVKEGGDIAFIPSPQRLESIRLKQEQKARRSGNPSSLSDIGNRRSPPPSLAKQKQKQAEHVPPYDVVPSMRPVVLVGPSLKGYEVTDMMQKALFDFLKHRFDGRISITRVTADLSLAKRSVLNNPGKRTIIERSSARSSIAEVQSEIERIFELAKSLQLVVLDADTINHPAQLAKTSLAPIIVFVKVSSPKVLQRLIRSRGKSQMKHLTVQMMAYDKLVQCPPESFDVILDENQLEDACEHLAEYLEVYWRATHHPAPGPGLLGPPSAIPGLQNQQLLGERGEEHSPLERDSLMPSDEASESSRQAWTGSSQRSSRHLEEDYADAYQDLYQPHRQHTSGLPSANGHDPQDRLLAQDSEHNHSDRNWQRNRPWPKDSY
As usually defined, the IC50 is the midpoint of a concentration-inhibition curve. In the case of `CC(C)C(C(=O)N[C@H]1CC[C@@H]2CN(Cc3ccccc3)C[C@@H]21)c1ccccc1` (relative stereo) [Example 6, N-[(3aR*,4S*,6aS*)-2-benzyloctahydrocyclopenta[c]pyrrol-4-yl]-3-methyl-2-phenylbutanamide], the IC50 came to 2200 nM.

As for `CC(C)C(C(=O)N[C@H]1CC[C@@H]2CN(CCCc3ccc(C(C)(C)C)cc3)C[C@@H]21)c1ccccc1` (stereo partly drawn) [Example 106, N-{(3aR,4S,6aS)-2-[3-(4-tert-butylphenyl)propyl]octahydrocyclopenta[c]pyrrol-4-yl}-3-methyl-2-phenylbutanamide], the IC50 is 5800 nM.

Turning to `O=C(N[C@H]1CC[C@H]2CN(Cc3ccccc3)C[C@H]21)C1(c2ccccc2)CCCCC1` (relative stereo) [Example 9, N-[(3aS*,4S*,6aR*)-2-benzyloctahydrocyclopenta[c]pyrrol-4-yl]-1-phenylcyclohexanecarboxamide], the IC50 came out at 1800 nM.

The same test, now with this note: 60 minute pre-incubation with compound, 2 μM nifedipine, depolarized with 80 mM KCl.
Take `CCN(C(=O)OC(C)(C)C)[C@@H](CC(C)C)C(=O)N[C@H]1CC[C@@H]2CN(Cc3ccccc3)C[C@@H]21` [Example 223, tert-butyl(S)-1-((3aR,4S,6aS)-2-benzyloctahydrocyclopenta[c]pyrrol-4-ylamino)-4-methyl-1-oxopentan-2-yl(ethyl)carbamate]: the 50% inhibitory concentration (IC50) turned out to be 2060 nM.

For the compound `CCC[C@H](NC)C(=O)N[C@H]1CC[C@@H]2CN(S(=O)(=O)c3cccc(Br)c3)C[C@@H]21` [Example 551, N^1-{(3aR,4S,6aS)-2-[(3-bromophenyl)sulfonyl]octahydrocyclopenta[c]pyrrol-4-yl}-N^2-methyl-L-norvalinamide], the 50% inhibitory concentration (IC50) was 2490 nM.

As to `CN[C@H](C(=O)N[C@@H]1CC[C@H]2CN(Cc3ccc(C(F)(F)F)cc3)C[C@H]21)C(C)C` [Example 367, N^2-methyl-N^1-{(3aS,4R,6aR)-2-[4-(trifluoromethyl)benzyl]octahydrocyclopenta[c]pyrrol-4-yl}-L-valinamide], the IC50 is 7000 nM.

On to `CC(C)(C)CN[C@@H]1CC[C@H]2CN(S(=O)(=O)c3cccc(C(F)(F)F)c3)C[C@H]21` [Example 281, (3aS,4R,6aR)—N-neopentyl-2-{[3-(trifluoromethyl)phenyl]sulfonyl}octahydrocyclopenta[c]pyrrol-4-amine], for which the IC50 is 4180 nM.

In the case of `CC(C)C(C(=O)N[C@H]1CC[C@@H]2CN(CCCc3ccc(C(F)(F)F)cc3)C[C@@H]21)c1ccccc1` (stereo partly drawn) [Example 115, 3-methyl-2-phenyl-N-((3aR,4S,6aS)-2-{3-[4-(trifluoromethyl)phenyl]propyl}octahydrocyclopenta[c]pyrrol-4-yl)butanamide], the IC50 was found to be 1200 nM.

`CCC[C@H](NC(C)C)C(=O)N[C@H]1CC[C@@H]2CN(S(=O)(=O)c3ccc(C(F)(F)F)cc3)C[C@@H]21` [Example 481, N^2-isopropyl-N^1-((3aR,4S,6aS)-2-{[4-(trifluoromethyl)phenyl]sulfonyl}octahydrocyclopenta[c]pyrrol-4-yl)-L-norvalinamide]: the IC50 was 2280 nM.

With `CCN(C(=O)OC(C)(C)C)[C@@H](CC(C)C)C(=O)N[C@H]1CC[C@@H]2CN(S(=O)(=O)c3cccc(C(F)(F)F)c3)C[C@@H]21` [Example 323, tert-butyl ethyl((S)-4-methyl-1-oxo-1-((3aR,4S,6aS)-2-(3-(trifluoromethyl)phenylsulfonyl)octahydrocyclopenta[c]pyrrol-4-ylamino)pentan-2-yl)carbamate], the IC50 was 200 nM.

Consider `O=C(N[C@H]1CC[C@H]2CN(Cc3cccc(C(F)(F)F)c3)C[C@H]21)C(O)(C1CCCCC1)C1CCCCC1` [Example 152, 2,2-dicyclohexyl-2-hydroxy-N-{(3aS,4S,6aR)-2-[3-(trifluoromethyl)benzyl]octahydrocyclopenta[c]pyrrol-4-yl}acetamide], for which the IC50 was determined as 800 nM.

On to “N-methyl-N-((3aR,4S,6aS)-2-{[4-(trifluoromethyl)phenyl]sulfonyl}octahydrocyclopenta[c]pyrrol-4-yl)-L-phenylalaninamide [Example 430]”, for which the IC50 is 1750 nM.

As for `CCN[C@@H](CC(C)(C)C)C(=O)N[C@H]1CC[C@@H]2CN(S(=O)(=O)c3ccc(C(F)(F)F)cc3)C[C@@H]21` [Example 477, N^2-ethyl-4-methyl-N^1-((3aR,4S,6aS)-2-{[4-(trifluoromethyl)phenyl]sulfonyl}octahydrocyclopenta[c]pyrrol-4-yl)-L-leucinamide], the IC50 is 1880 nM.

Take `CN[C@@H](CC(C)C)C(=O)N[C@H]1CC[C@@H]2CN(S(=O)(=O)c3ccc(C(F)(F)F)cc3)C[C@@H]21` [Example 395, N^2-methyl-N^1-((3aR,4S,6aS)-2-{[4-(trifluoromethyl)phenyl]sulfonyl}octahydrocyclopenta[c]pyrrol-4-yl)-L-leucinamide]: the IC50 was found to be 2120 nM.

On to `CN[C@H](C(=O)N[C@H]1CC[C@@H]2CN(S(=O)(=O)c3ccc(C(F)(F)F)cc3)C[C@@H]21)C(C)C` [Example 451, N^2-methyl-N^1-((3aR,4S,6aS)-2-{[4-(trifluoromethyl)phenyl]sulfonyl}octahydrocyclopenta[c]pyrrol-4-yl)-L-valinamide], for which the IC50 worked out at 800 nM.

`CN[C@@H](CC(C)C)C(=O)N[C@@H]1CC[C@H]2CN(S(=O)(=O)c3ccc(Cl)cc3)C[C@H]21` [Example 447, N^1-{(3aS,4R,6aR)-2-[(4-chlorophenyl)sulfonyl]octahydrocyclopenta[c]pyrrol-4-yl}-N^2-methyl-L-leucinamide]: the IC50 was determined as 2710 nM.

As for `O=C(N[C@H]1CC[C@H]2CN(Cc3cccc(C(F)(F)F)c3)C[C@H]21)C(C1CCCCC1)C1CCCCC1` (relative stereo) [Example 124, 2,2-dicyclohexyl-N-{(3aS*,4S*,6aR*)-2-[3-(trifluoromethyl)benzyl]octahydrocyclopenta[c]pyrrol-4-yl}acetamide], the IC50 amounted to 700 nM.

As to `Cc1cccc(CN2C[C@@H]3CC[C@H](NC(=O)C(C4CCCCC4)C4CCCCC4)[C@@H]3C2)c1` [Example 61, 2,2-dicyclohexyl-N-[(3aS,4S,6aR)-2-(3-methylbenzyl)octahydrocyclopenta[c]pyrrol-4-yl]acetamide], the IC50 was determined as 1500 nM.

For `CC(C)(C)C[C@H](NC1CCCCC1)C(=O)N[C@H]1CC[C@@H]2CN(S(=O)(=O)c3ccc(C(F)(F)F)cc3)C[C@@H]21` [Example 502, N^2-cyclohexyl-4-methyl-N^1-((3aR,4S,6aS)-2-{[4-(trifluoromethyl)phenyl]sulfonyl}octahydrocyclopenta[c]pyrrol-4-yl)-L-leucinamide], the IC50 stood at 970 nM.

For the compound `O=C(CC(c1ccccc1)c1ccccc1)N[C@@H]1CC[C@H]2CN(Cc3cccc(C(F)(F)F)c3)C[C@H]21` (relative stereo) [Example 141, 3,3-diphenyl-N-{(3aS*,4R*,6aR*)-2-[3-(trifluoromethyl)benzyl]octahydrocyclopenta[c]pyrrol-4-yl}propanamide], the IC50 came to 600 nM.

Consider `CC[C@H](C)[C@H](NC)C(=O)N[C@H]1CC[C@@H]2CN(S(=O)(=O)c3ccc(C(F)(F)F)cc3)C[C@@H]21` [Example 411, N^2-methyl-N^1-((3aR,4S,6aS)-2-{[4-(trifluoromethyl)phenyl]sulfonyl}octahydrocyclopenta[c]pyrrol-4-yl)-L-isoleucinamide], for which the IC50 was determined as 4220 nM.

As for `CCC[C@@H](C(=O)N[C@@H]1CC[C@H]2CN(Cc3ccc(C(F)(F)F)cc3)C[C@H]21)N(C)C(=O)OC(C)(C)C` [Example 317, tert-butyl methyl((S)-1-oxo-1-((3aS,4R,6aR)-2-(4-(trifluoromethyl)benzyl)octahydrocyclopenta[c]pyrrol-4-ylamino)pentan-2-yl)carbamate], the IC50 is 900 nM.

Regarding `CC[C@H](C)[C@@H](C(=O)N[C@H]1CC[C@@H]2CN(Cc3ccccc3)C[C@@H]21)N(C)C(=O)OC(C)(C)C` [Example 224, tert-butyl(2S,3S)-1-((3aR,4S,6aS)-2-benzyloctahydrocyclopenta[c]pyrrol-4-ylamino)-3-methyl-1-oxopentan-2-yl(methyl)carbamate], the IC50 was 4640 nM.

As for `CC(C)[C@@H](C(=O)N[C@@H]1CC[C@H]2CN(S(=O)(=O)c3cccc(C(F)(F)F)c3)C[C@H]21)N(C)C(=O)OC(C)(C)C` [Example 340, tert-butyl methyl((S)-3-methyl-1-oxo-1-((3aS,4R,6aR)-2-(3-(trifluoromethyl)phenylsulfonyl)octahydrocyclopenta[c]pyrrol-4-ylamino)butan-2-yl)carbamate], the IC50 came out at 1030 nM.

In the case of `CN[C@@H](CC(C)(C)C)C(=O)N(C1CC1)[C@H]1CC[C@@H]2CN(S(=O)(=O)c3ccc(C(F)(F)F)cc3)C[C@@H]21` [Example 433, N^1-cyclopropyl-N^2,4-dimethyl-N^1-((3aR,4S,6aS)-2-{[4-(trifluoromethyl)phenyl]sulfonyl}octahydrocyclopenta[c]pyrrol-4-yl)-L-leucinamide], the IC50 was 1260 nM.

Still in this test, the particulars now being: IMR-32, @ 10 μM, 3 minute pre-incubation (*), read-out: percent inhibition.
As a reminder, the inhibition is the share of the control response that was lost under treatment. On to `CC(C)C(C(=O)N[C@H]1CC[C@@H]2CN(CCc3ccccc3)C[C@@H]21)c1ccccc1` (stereo partly drawn) [Example 104, 3-methyl-2-phenyl-N-[(3aR,4S,6aS)-2-(2-phenylethyl)octahydrocyclopenta[c]pyrrol-4-yl]butanamide], for which the inhibition at 10 µM was 79%.

As for `C[C@H](C(=O)N[C@H]1CC[C@@H]2CN(Cc3ccccc3)C[C@@H]21)c1ccccc1` [Example 38, (2S)—N-[(3aR,4S,6aS)-2-benzyloctahydrocyclopenta[c]pyrrol-4-yl]-2-phenylpropanamide], the inhibition at 10 µM stood at 27%.

(Values after patent publication US8129417B2, “Substituted octahydrocyclopenta[C]pyrrol-4-amines as calcium channel blockers” (Abbott Laboratories, priority 2008, dated 2012).)
